In ChEMBL document CHEMBL5620375, “Tetrahydrobenzo[h]quinoline derivatives as a novel chemotype for dual antileishmanial-antimalarial activity graced with antitubercular activity: Design, synthesis and biological evaluation” (Eur J Med Chem, 2023):
Converted amounts (≈) assume the structure as drawn.

System: Mycobacterium tuberculosis
Experiment: Antitubercular activity against multidrug-resistant Mycobacterium tuberculosis ATCC 35822 assessed as inhibition of bacterial growth by microplate alamar blue assay
Assay type: functional

Compared with `COc1ccc(OC)c(-c2c3c([nH]c(=O)c2C#N)-c2ccccc2CC3)c1`, `COc1ccccc1-c1c2c([nH]c(=O)c1C#N)-c1ccccc1CC2` is 1.8-fold lower in MIC: 21.8 µM (≈ 7.82 µg/mL) for the first, 11.9 µM (≈ 3.9 µg/mL) for the second.

Compared with `N#Cc1c(-c2ccc(Cl)cc2Cl)c2c([nH]c1=O)-c1ccccc1CC2`, `COc1ccc(-c2c3c([nH]c(=O)c2C#N)-c2ccccc2CC3)cc1O` is 1.9-fold lower in MIC: 85.4 µM (≈ 31.4 µg/mL) for the first, 45.4 µM (≈ 15.6 µg/mL) for the second.

Molecule `N#Cc1c(O)nc2c(c1-c1cccc([N+](=O)[O-])c1)CCc1ccccc1-2` has an MIC of 22.8 µM (≈ 7.82 µg/mL).
